Laboratory results from ChEMBL document CHEMBL1817646, “Chromomycin SA analogs from a marine-derived Streptomyces sp” (Bioorg Med Chem, 2011).

Tests used:
[1] = Ratio IC50 for compound to mithramycin IC50 for mouse 3T3 cells; type: cell-based; details: NIH3T3 cells, read-out: Ratio IC50
[2] = tested on: A549; experiment: Cytotoxicity against human A549 cells after 96 hrs by Cell Titer Glo assay; type: functional, cell-based; details: A549, 96 h
[3] = Cytotoxicity against human HCC44 cells after 96 hrs by Cell Titer Glo assay; type: functional, cell-based; details: HCC44, 96 h

CO[C@H](C(=O)[C@@H](O)[C@@H](C)O)[C@@H]1Cc2cc3cc(O[C@H]4C[C@@H](O[C@H]5C[C@@H](O)[C@H](O)[C@@H](C)O5)[C@H](O)[C@@H](C)O4)c(C)c(O)c3c(O)c2C(=O)[C@H]1O[C@H]1C[C@@H](O[C@H]2C[C@@H](O[C@H]3C[C@](C)(O)[C@H](O)[C@@H](C)O3)[C@@H](O)[C@@H](C)O2)[C@H](O)[C@@H](C)O1 [PLICAMYCIN]
selectivity ratio [1]: 1500

CO[C@H]1[C@H](O)C[C@@H](O[C@@H]2C[C@H](Oc3cc4cc5c(c(O)c4c(O)c3C)C(=O)[C@@H](O[C@H]3C[C@H](O[C@H]4C[C@H](O[C@H]6C[C@@](C)(O)[C@@H](O)[C@H](C)O6)[C@H](O)[C@@H](C)O4)[C@H](O)[C@@H](C)O3)[C@H]([C@H](OC)C(=O)[C@@H](O)[C@@H](C)O)C5)O[C@H](C)[C@H]2O)O[C@@H]1C
IC50 [2]: > 50000 nM
IC50 [3]: > 50000 nM

COC(=O)[C@@H](OC)[C@@H]1Cc2cc3cc(O[C@H]4C[C@@H](O[C@@H]5C[C@@H](O)[C@H](OC)[C@@H](C)O5)[C@H](OC(C)=O)[C@@H](C)O4)c(C)c(O)c3c(O)c2C(=O)[C@H]1O[C@H]1C[C@H](O[C@H]2C[C@H](O[C@H]3C[C@@](C)(O)[C@@H](O)[C@H](C)O3)[C@H](O)[C@@H](C)O2)[C@H](O)[C@@H](C)O1
IC50 [3]: 3400 nM

CO[C@H]1[C@H](O)C[C@@H](O[C@@H]2C[C@H](Oc3cc4cc5c(c(O)c4c(O)c3C)C(=O)[C@@H](O[C@H]3C[C@H](O[C@H]4C[C@H](O[C@H]6C[C@@](C)(O)[C@@H](O)[C@H](C)O6)[C@H](O)[C@@H](C)O4)[C@H](O)[C@@H](C)O3)[C@H]([C@H](OC)C(=O)[C@@H](O)[C@@H](C)O)C5)O[C@H](C)[C@H]2OC(C)=O)O[C@@H]1C [DEACETYL CHROMOMYCIN A3]
IC50 [2]: 1200 nM
IC50 [3]: 670 nM

CO[C@H]1[C@H](O)C[C@@H](O[C@@H]2C[C@H](Oc3cc4cc5c(c(O)c4c(O)c3C)C(=O)[C@@H](O[C@H]3C[C@H](O[C@H]4C[C@H](O[C@H]6C[C@@](C)(O)[C@@H](OC(C)=O)[C@H](C)O6)[C@H](O)[C@@H](C)O4)[C@H](O)[C@@H](C)O3)[C@H]([C@H](OC)C(=O)O)C5)O[C@H](C)[C@H]2OC(C)=O)O[C@@H]1C [CHROMOMYCIN SA]
IC50 [2]: 560 nM
IC50 [3]: 210 nM

CO[C@H]1[C@H](O)C[C@@H](O[C@@H]2C[C@H](Oc3cc4cc5c(c(O)c4c(O)c3C)C(=O)[C@@H](O[C@H]3C[C@H](O[C@H]4C[C@H](O[C@H]6C[C@@](C)(O)[C@@H](OC(=O)C(C)C)[C@H](C)O6)[C@H](O)[C@@H](C)O4)[C@H](O)[C@@H](C)O3)[C@H]([C@H](OC)C(=O)O)C5)O[C@H](C)[C@H]2OC(C)=O)O[C@@H]1C [CHROMOMYCIN SA2]
IC50 [2]: 1500 nM
IC50 [3]: 780 nM

CO[C@H]1[C@H](O)C[C@@H](O[C@@H]2C[C@H](Oc3cc4cc5c(c(O)c4c(O)c3C)C(=O)[C@@H](O[C@H]3C[C@H](O[C@H]4C[C@H](O[C@H]6C[C@@](C)(O)[C@@H](O)[C@H](C)O6)[C@H](O)[C@@H](C)O4)[C@H](O)[C@@H](C)O3)[C@H]([C@H](OC)C(=O)O)C5)O[C@H](C)[C@H]2OC(C)=O)O[C@@H]1C [CHROMOMYCIN SA3]
IC50 [2]: > 50000 nM
IC50 [3]: > 33300 nM

CO[C@@H]1[C@H](O)C[C@@H](O[C@@H]2C[C@H](Oc3cc4cc5c(c(O)c4c(O)c3C)C(=O)[C@@H](O[C@H]3C[C@@H](O[C@H]4C[C@@H](O[C@H]6C[C@](C)(O)[C@@H](OC(C)=O)[C@H](C)O6)[C@H](O)[C@@H](C)O4)[C@H](O)[C@@H](C)O3)[C@H]([C@H](OC)C(=O)[C@@H](O)[C@@H](C)O)C5)O[C@H](C)[C@@H]2OC(C)=O)O[C@@H]1C [CHROMOMYCIN A3]
IC50 [2]: 42 nM
IC50 [3]: 1 nM

CO[C@H]1[C@H](O)C[C@@H](O[C@@H]2C[C@H](Oc3cc4cc5c(c(O)c4c(O)c3C)C(=O)[C@@H](O[C@H]3C[C@H](O[C@H]4C[C@H](O[C@H]6C[C@@](C)(O)[C@@H](OC(=O)C(C)C)[C@H](C)O6)[C@H](O)[C@@H](C)O4)[C@H](O)[C@@H](C)O3)[C@H]([C@H](OC)C(=O)[C@@H](O)[C@@H](C)O)C5)O[C@H](C)[C@H]2OC(C)=O)O[C@@H]1C [CHROMOMYCIN A2]
IC50 [2]: 0.44 nM
IC50 [3]: 0.26 nM

COC(=O)[C@@H](OC)[C@@H]1Cc2cc3cc(O[C@H]4C[C@@H](O[C@@H]5C[C@@H](O)[C@H](OC)[C@@H](C)O5)[C@H](OC(C)=O)[C@@H](C)O4)c(C)c(O)c3c(O)c2C(=O)[C@H]1O[C@H]1C[C@H](O[C@H]2C[C@H](O[C@H]3C[C@@](C)(O)[C@@H](OC(=O)C(C)C)[C@H](C)O3)[C@H](O)[C@@H](C)O2)[C@H](O)[C@@H](C)O1
IC50 [3]: 56 nM
